Experimental data reported in US20140271667A1, “Methods and Compositions for Neoadjuvant Therapy” (The Wistar Institute of Anatomy and Biology, priority 2013, published 2014).

Tests used:
[1] = test system: AMPK; assay: Western blotting, AMPK and ACC phosphorylation; format: cell-based, human
Experimental: Protein lysates were prepared in RIPA buffer containing 150 mM NaCl, 1.0% Triton X-100, 0.5% sodium deoxycholate, 0.1% SDS, 50 mM Tris, pH 8.0, in the presence of EDTA-free protease inhibitor cocktail (Roche) and phosphatase inhibitor cocktail 2 and 3 (Sigma Aldrich). Equal amounts of protein lysates were separated by SDS gel electrophoresis, transferred to PVDF membranes and incubated with primary antibodies of various specificities. Protein bands were detected by chemiluminescence, as described (21).

[2] = test system: LN229 cells; assay: Galactose challenge cell viability; format: cell-based, human; settings: Gamitrinib 5 μM
Experimental: Human glioblastoma LN229, prostate adenocarcinoma PC3 and PC3-ML subline, lung adenocarcinoma H1299, H1437, H460 and A549, breast adenocarcinoma MDA-MB-231, melanoma 1205Lu and WM793, or normal NIH3T3 and MRC-5 fibroblasts were obtained from the American Tissue Culture Collection (ATCC), and maintained in culture according to the supplier's specifications. For metabolic stress experiments, cells were incubated in MEM-based media containing glucose, essential and non-essential amino acids and vitamins in identical concentration as DMEM, plus 4 mM L-glutamine, 1 mM sodium pyruvate, 10 mM HEPES, and 10% 10 K dialyzed FBS (Gibco). Three conditions were tested: 25 mM glucose (complete medium), 5 mM glucose or 50% amino acid deprivation compared to DMEM. […]
Tumor cells were plated onto 96-well plates at 3.7×10^3/well and treated with vehicle or Gamitrinib (5 μM). After 24 h, cell viability was assessed with a 3 (4,5-dimethyl-thyazoyl-2-yl)2,5 diphenyltetrazolium bromide (MTT) colorimetric assay (24), or, alternatively, by Trypan blue exclusion and light microscopy. […] In some experiments, tumor cell proliferation was assessed by direct cell counting and light microscopy.

[3] = test system: PC3 cells; assay: Cell death by Trypan blue exclusion; format: cell-based; settings: vs vehicle, Gamitrinib 5 μM, CCCP 12.5 μM, 2-DG 25 mM
Experimental: Tumor cells were plated onto 96-well plates at 3.7×10^3/well and treated with vehicle or Gamitrinib (5 μM). After 24 h, cell viability was assessed with a 3 (4,5-dimethyl-thyazoyl-2-yl)2,5 diphenyltetrazolium bromide (MTT) colorimetric assay (24), or, alternatively, by Trypan blue exclusion and light microscopy. Data were background-subtracted relative to vehicle-treated cultures. In some experiments, tumor cell proliferation was assessed by direct cell counting and light microscopy.

[4] = test system: PC3 cells; assay: Transwell cell migration; format: cell-based, human; settings: Gamitrinib 5 μM, 17-AAG 5 μM, CCCP 12.5 μM, 2-DG 25 mM, rapamycin 0.1 μM, 6 h
Experimental: Various tumor cell types were treated as indicated in each experiment, suspended in 0.1% BSA/DMEM and seeded (1.6−3.2×10^3 cells/mm2, depending on the cell type) in the upper compartment of […] pore diameter BD transwells (BD). NIH3T3 conditioned medium was placed in the lower compartment as a chemoattractant. After 6-18 h incubations at 37° C., the transwell membranes were recovered and cells on the upper side (non-migratory) were wiped off the surface. Cells on the lower side of the membrane were fixed in methanol, rinsed in water and mounted on glass slides with Vectashield medium containing DAPI (Vector Laboratories). Migrated cells on each membrane were counted by fluorescence microscopy in 5 different fields. For cell invasion assays, transwell membranes were coated with Matrigel and processed as described above.

[5] = test system: FIP200; assay: FIP200 phosphoisotypes, phosphate-affinity SDS gel mobility shift; format: cell-based, human; settings: PC3; Gamitrinib 5 μM
Experimental: Analysis of phosphoisotypes was carried out by standard phosphate-affinity SDS gel electrophoresis, using a mobility shift protocol (56). Briefly, proteins were separated by electrophoresis on 3% polyacrylamide/0.5% SeaKem Gold Agarose (Lonza) gels containing the dinuclear metal complex Mn2+-Phos-tag (Acrylamide-pendant Phos-tag, Wako Chemicals). After removal of Mn2+ by washing the gels in blotting buffer containing 1 mM EDTA, proteins were transferred to PVDF membranes and detected by Western blotting using antibodies to FIP200 or pan-phosphorylated Ser residues.

[6] = test system: PC3 cells; assay: Lamella dynamics in live cells (SACED stroboscopic analysis); format: cell-based, human; settings: Gamitrinib 5 μM
Experimental: Tumor cells growing at low confluency (3-5×10^4/well) on high optical quality 96 well μ-plates (Ibidi) were imaged with a 40× objective on a Nikon TE300 inverted time-lapse microscope equipped with a video system containing a Evolution QEi camera and a time-lapse video cassette recorder. All experiments were carried out in atmosphere-equilibrated environment at 37° C. and 5% CO2. Phase contrast images were captured at 0.5 sec intervals for 5 min (600 images=300 sec) and merged into sequence files using ImagePro Plus 7. Real time dynamics of a particular cellular region were quantified by Stroboscopic Analysis of Cell Dynamics (SACED) (55), with generation of digital steps from the first 120 sec (240 frames) of the sequence files imported into Image J software. A particular region of 16.2 μm×0.162 μm (“SACED line”) was selected in cells under analysis, duplicated and montaged in sequence to display the region over time in a stroboscopic image. […] Structures such as protruding lamellipodia and ruffles were manually labeled and the frequency of ruffles per min was calculated. Mean values were calculated from at least 15 cells from 4 separate wells. All experiments were repeated at least twice with different tumor cell types.

[7] = test system: LN229 spheroids; assay: Tumor cell invasion in 3D organotypic spheroids embedded in collagen; format: cell-based, human; settings: LN229 spheroids in collagen matrix; Gamitrinib 1.25-2.5 μM; 72 h
Experimental: (§1) For cell migration experiments using a wound closure assay, confluent monolayers of MRC-5 cells were incubated with vehicle or Gamitrinib (5-10 μM), and wounded using a 10 μl pipette tip. Three micrographs/well were obtained at time=0, 16 and 24 h after wounding, and the percentage of wound closure was normalized to the maximum initial area for each well. For analysis of tumor cell invasion in 3D organotypic spheroids, tumor cells (5×10^4) were seeded onto 96-well plates coated with 1.5% agar (Difco Noble Agar) in PBS, pH 7.4. Spheroids were allowed to form over a 72 h period and then embedded in […] of bovine collagen type I (Organogenesis) in 24-well plates. Spheroids were overlaid with 1 ml of growth medium, treated with various concentrations of Gamitrinib for 72 h, and analyzed for changes in maximum invasion distance and invasion area. Quantification of live vs. dead cells under the various conditions tested was performed by staining the spheroids with calcein-AM (live, bright cluster) and Topro-3 (dead, dark spots) (Invitrogen) for 2 h. Samples were imaged using a Prairie Ultima II 2-photon microscope (Prairie Technologies, Inc, Middleton, Wis.), and stacks of 100 slices were generated in 2 channels. 3-D reconstruction of the labeled spheroids and analysis of cell staining was carried out using ImagePro Plus 3D software (Media Cybernetics, Silver Spring Md.).

[8] = test system: normal human MRC-5 lung fibroblasts; assay: Wound closure assay, normal fibroblasts; format: cell-based; settings: Gamitrinib 5-10 μM, 16 or 24 h
Experimental: as §1

Question: With Gamitrinib as the substance, how does the “AMPK phosphorylation during nutrient deprivation” value ([1]; LN229, Gamitrinib 5 μM, with or without glucose) read?
Answer: increased AMPK phosphorylation

Question: And the “AMPK and ACC phosphorylation” value ([1]; PC3, Gamitrinib 5 μM time course, metformin 5 mM 6 h, 17-AAG 5 μM time course)?
Answer: induced early phosphorylation

Question: And the “tumor cell viability in 100% galactose” value ([2]; 0% Glc-100% Gal)?
Answer: nearly complete tumor cell death

Question: What about the “tumor cell viability in glucose or 50% galactose” value ([2]; 100% glucose or 50% Glc-50% Gal) of the same substance?
Answer: did not significantly reduce tumor cell viability

Question: And the “cell death by Trypan blue exclusion” value [3]?
Answer: did not affect

Question: What about the tumor cell migration [4] of the same substance?
Answer: suppressed

Question: What about the “FIP200 gel mobility (phosphorylation)” value [5] of the same substance?
Answer: gel mobility retardation, suggestive of increased phosphorylation

Question: What about the “ruffling frequency and retraction speed” value ([6]; PC3) of the same substance?
Answer: profound inhibition

Question: What about the cytoskeletal lamella dynamics ([6]; single cell time-lapse videomicroscopy) of the same substance?
Answer: nearly complete loss

Question: What about the “invasive length and invasive areas” value [7] of the same substance?
Answer: nearly complete suppression

Question: What about the “tumor cell invasion in organotypic spheroids” value [7] of the same substance?
Answer: blocked tumor cell invasion

Question: What about the “migration of normal human fibroblasts in wound closure assay” value [8] of the same substance?
Answer: did not affect migration
